Measured values: patent US20170121322A1, “BET-PROTEIN INHIBITING 3,4-DIHYDROPYRIDO[2,3-B]PYRAZINONES WITH META-SUBSTITUTED AROMATIC AMINO- OR ETHER GROUPS” (Bayer Pharma Aktiengesellschaft, priority 2014, published 2017)
pIC50: −log10 of the molar value.

Experiments:
[1] = system: MOLP-8 cells; experiment: Cell proliferation assay MOLP-8 (alamarBlue); format: cell-based; details: Homo sapiens, multiple myeloma cells, 120 hours
Description: In accordance with the invention, the ability of the substances to inhibit cell proliferation was determined. Cell viability was determined by means of the alamarBlue® reagent (Invitrogen) in a Victor X3 Multilabel Reader (Perkin Elmer). The excitation wavelength was 530 nm and the emission wavelength […].
The MOLP-8 cells (DSMZ, ACC 569) were seeded at a concentration of 4000 cells/well in 100 μl of growth medium (RPMI1640, 20% FCS) on 96-well microtitre plates.
After overnight incubation at 37° C., the fluorescence values (CI values) were determined. Then the plates were treated with various substance dilutions (1E-5 M, 3E-6 M, 1E-6 M, 3E-7 M, 1E-7 M, 3E-8 M, 1E-8 M) and incubated at 37° C. over 96 hours (MOLM-13, B16F10, CHL-1 cells) or 120 hours (MOLP-8 cells). Subsequently, the fluorescence values were determined (CO values). For the data analysis, the CI values were subtracted from the CO values and the results were compared between cells which had been treated with various dilutions of the substance or only with buffer solution. The IC50 values (substance concentration needed for 50% inhibition of cell proliferation) were calculated therefrom.
The substances were tested in the cell lines in Table 2, which represent the indications specified by way of example: […]

[2] = target: T1, BRD4 bromo domain 1 [BRD4(1)] (Homo sapiens, UniProt O60885); experiment: BRD4(1)/acetylated peptide H4 TR-FRET binding assay; details: His6-BRD4(1) (aa 67-152) vs acetylated histone H4 peptide
T1 construct: N-terminally His6-tagged BRD4(1) (amino acids 67-152); made in house; host or cells: E. coli
From the text: To assess the BRD4(1) binding strength of the substances described in this application, the ability thereof to inhibit the interaction between BRD4(1) and acetylated histone H4 in a dose-dependent manner was quantified.
For this purpose, a time-resolved fluorescence resonance energy transfer (TR-FRET) assay was used, which measures the binding between N-terminally His6-tagged BRD4(1) (amino acids 67-152) and a synthetic acetylated histone H4 (Ac-H4) peptide with sequence GRGK(Ac)GGK(Ac)GLGK(Ac)GGAK(Ac)RHGSGSK-biotin. The recombinant BRD4(1) protein produced in-house according to Filippakopoulos et al., Cell, 2012, 149:214-231 was expressed in E. coli and purified by means of (Ni-NTA) affinity and (Sephadex G-75) size exclusion chromatography. The Ac-H4 peptide can be purchased, for example, from Biosyntan (Berlin, Germany).
In the assay, typically 11 different concentrations of each substance (0.1 nM, 0.33 nM, 1.1 nM, 3.8 nM, 13 nM, 44 nM, 0.15 μM, 0.51 μM, 1.7 μM, 5.9 μM and 20 μM) were analysed as duplicates on the same microtitre plate. For this purpose, 100-fold concentrated solutions in DMSO were prepared by serial dilutions (1:3.4) of a 2 mM stock solution into a clear, 384-well microtitre plate (Greiner Bio-One, Frickenhausen, Germany). From this, 50 nl were transferred into a black test plate (Greiner Bio-One, Frickenhausen, Germany). The test was started by the addition of 2 μl of a 2.5-fold concentrated BRD4(1) solution (final concentration typically 10 nM in the 5 μl of reaction volume) in aqueous assay buffer [50 mM HEPES pH 7.5, 50 mM sodium chloride (NaCl), 0.25 mM CHAPS and 0.05% serum albumin (BSA)] to the substances in the test plate. This was followed by a 10-minute incubation step at 22° C. for the pre-equilibration of putative complexes between BRD4(1) and the substances. Subsequently, 3 μl of a solution of 1.67 times the concentration (in assay buffer) consisting of Ac-H4 peptide (83.5 nM) and TR-FRET detection reagents [16.7 nM anti-6His-XL665 and 3.34 nM streptavidin cryptate (both from Cisbio Bioassays, Codolet, France), and 668 mM potassium fluoride (KF)] were added.
The mixture was then incubated in the dark at 22° C. for one hour and then at 4° C. for at least 3 hours and for no longer than overnight. The formation of BRD4(1)/Ac-H4 complexes was determined by the measurement of the resonance energy transfer from the streptavidin-Eu cryptate to the anti-6His-XL665 antibody present in the reaction. For this purpose, the fluorescence emission was measured at 620 nm and 665 nm after excitation at 330-350 nm in a TR-FRET measuring instrument, for example a Rubystar or Pherastar (both from BMG Lab Technologies, Offenburg, Germany) or a Viewlux (Perkin-Elmer). The ratio of the emissions at 665 nm and at 622 nm was taken as an indicator of the amount of BRD4(1)/Ac-H4 complexes formed.
The data (ratios) obtained were normalized, with 0% inhibition corresponding to the mean from the measurements for a set of controls (typically 32 data points) in which all the reagents were present. In these, in place of test substances, 50 nl of DMSO (100%) were used. Inhibition of 100% corresponded to the mean from the measurements for a set of controls (typically 32 data points) in which all the reagents except BRD4(1) were present. The IC50 was determined by regression analysis based on a 4-parameter equation (minimum, maximum, IC50, Hill; Y=Max+(Min−Max)/(1+(X/IC50)Hill).

SMILES	pIC50 [1]	pIC50 [2]
C[C@@H]1C(=O)N(C)c2ccc(Nc3ccc4c(c3)S(=O)(=O)CC4)nc2N1C1CCOCC1 [Example 4, (3R)-6-[(1,1-Dioxido-2,3-dihydro-1-benzothiophen-6-yl)amino]-1,3-dimethyl-4-(tetrahydro-2H-pyran-4-yl)-3,4-dihydropyrido[2,3-b]pyrazin-2(1H)-one]	6.66	7.03
COc1ccc(S(=O)(=O)C2CCOCC2)cc1Nc1ccc2c(n1)N(C1CCOCC1)[C@H](C)C(=O)N2C [Example 34, (3R)-6-{[2-Methoxy-5-(tetrahydro-2H-pyran-4-ylsulphonyl)phenyl]amino}-1,3-dimethyl-4-(tetrahydro-2H-pyran-4-yl)-3,4-dihydropyrido[2,3-b]pyrazin-2(1H)-one]	–	7.66
COc1ccc(S(C)(=O)=O)cc1Nc1ccc2c(n1)N(C(C)C)[C@H](C)C(=O)N2C [Example 14, (3R)-4-Isopropyl-6-{[2-methoxy-5-(methylsulphonyl)phenyl]amino}-1,3-dimethyl-3,4-dihydropyrido[2,3-b]pyrazin-2(1H)-one]	6.76	6.76
CC(C)S(=O)(=O)c1ccc(OC(F)(F)F)c(Nc2ccc3c(n2)N(C2CCN(C)CC2)[C@H](C)C(=O)N3C)c1 [Example 20, (3R)-6-{[5-(Isopropylsulphonyl)-2-(trifluoromethoxy)phenyl]amino}-1,3-dimethyl-4-(1-methylpiperidin-4-yl)-3,4-dihydropyrido[2,3-b]pyrazin-2(1H)-one]	–	7.74
COc1ccc(S(=O)(=O)C(C)C)cc1Nc1ccc2c(n1)N(C1CCN(C)CC1)[C@H](C)C(=O)N2C [Example 13, (3R)-6-{[5-(Isopropylsulphonyl)-2-methoxyphenyl]amino}-1,3-dimethyl-4-(1-methylpiperidin-4-yl)-3,4-dihydropyrido[2,3-b]pyrazin-2(1H)-one]	7.82	7.80
COc1ccc(S(=O)(=O)C2CCOCC2)cc1Nc1ccc2c(n1)N(C1CCN(C)CC1)[C@H](C)C(=O)N2C [Example 22, (3R)-6-{[2-Methoxy-5-(tetrahydro-2H-pyran-4-ylsulphonyl)phenyl]amino}-1,3-dimethyl-4-(1-methylpiperidin-4-yl)-3,4-dihydropyrido[2,3-b]pyrazin-2(1H)-one]	–	7.64
C[C@@H]1C(=O)N(C)c2ccc(Nc3cccc(S(C)(=O)=O)c3)nc2N1C1CCOCC1 [Example 1, (3R)-1,3-Dimethyl-6-{[3-(methylsulphonyl)phenyl]amino}-4-(tetrahydro-2H-pyran-4-yl)-3,4-dihydropyrido[2,3-b]pyrazin-2(1H)-one]	6.69	7.12
COc1ccc(S(=O)(=O)C(C)C)cc1Nc1ccc2c(n1)N(C1CCN(CC(F)(F)F)CC1)[C@H](C)C(=O)N2C [Example 28, (3R)-6-{[5-(Isopropylsulphonyl)-2-methoxyphenyl]amino}-1,3-dimethyl-4-[1-(2,2,2-trifluoroethyl)piperidin-4-yl]-3,4-dihydropyrido[2,3-b]pyrazin-2(1H)-one]	–	7.62
COc1ccc(S(=O)(=O)C2CCC2)cc1Nc1ccc2c(n1)N(C1CCOCC1)[C@H](C)C(=O)N2C [Example 35, (3R)-6-{[5-(Cyclobutylsulphonyl)-2-methoxyphenyl]amino}-1,3-dimethyl-4-(tetrahydro-2H-pyran-4-yl)-3,4-dihydropyrido[2,3-b]pyrazin-2(1H)-one]	–	7.49
CC(C)S(=O)(=O)c1ccc(OC(F)(F)F)c(Nc2ccc3c(n2)N(C2CCOCC2)[C@H](C)C(=O)N3C)c1 [Example 38, (3R)-6-{[5-(Isopropylsulphonyl)-2-(trifluoromethoxy)phenyl]amino}-1,3-dimethyl-4-(tetrahydro-2H-pyran-4-yl)-3,4-dihydropyrido[2,3-b]pyrazin-2(1H)-one]	–	7.35
COc1ccc(S(=O)(=O)C(C)C)cc1Nc1ccc2c(n1)N(C1CCN(CCC(F)(F)F)CC1)[C@H](C)C(=O)N2C [Example 31, (3R)-6-{[5-(Isopropylsulphonyl)-2-methoxyphenyl]amino}-1,3-dimethyl-4-[1-(3,3,3-trifluoropropyl)piperidin-4-yl]-3,4-dihydropyrido[2,3-b]pyrazin-2(1H)-one]	–	7.64
COc1ccc(S(=O)(=O)C(F)(F)F)cc1Nc1ccc2c(n1)N(C1CCN(C)CC1)[C@H](C)C(=O)N2C [Example 21, (3R)-6-({2-Methoxy-5-[(trifluoromethyl)sulphonyl]phenyl}amino)-1,3-dimethyl-4-(1-methylpiperidin-4-yl)-3,4-dihydropyrido[2,3-b]pyrazin-2(1H)-one]	–	7.64
COc1ccc(S(=O)(=O)C(C)C)cc1Nc1ccc2c(n1)N(C1CCNCC1)[C@H](C)C(=O)N2C [Example 26, (3R)-6-{[5-(Isopropylsulphonyl)-2-methoxyphenyl]amino}-1,3-dimethyl-4-(piperidin-4-yl)-3,4-dihydropyrido[2,3-b]pyrazin-2(1H)-one]	–	7.72
COc1ccc(S(=O)(=O)C(F)(F)F)cc1Nc1ccc2c(n1)N(C1CCOCC1)[C@H](C)C(=O)N2C [Example 39, (3R)-6-({2-Methoxy-5-[(trifluoromethyl)sulphonyl]phenyl}amino)-1,3-dimethyl-4-(tetrahydro-2H-pyran-4-yl)-3,4-dihydropyrido[2,3-b]pyrazin-2(1H)-one]	–	7.34
COc1cc(Nc2ccc3c(n2)N(C2CCOCC2)[C@H](C)C(=O)N3C)cc(S(C)(=O)=O)c1 [Example 40, (3R)-6-{[3-Methoxy-5-(methylsulphonyl)phenyl]amino}-1,3-dimethyl-4-(tetrahydro-2H-pyran-4-yl)-3,4-dihydropyrido[2,3-b]pyrazin-2(1H)-one]	–	7.20
COc1ccc(S(C)(=O)=O)cc1Nc1ccc2c(n1)N(C1CCNCC1)[C@H](C)C(=O)N2C [Example 27, (3R)-6-{[2-Methoxy-5-(methylsulphonyl)phenyl]amino}-1,3-dimethyl-4-(piperidin-4-yl)-3,4-dihydropyrido[2,3-b]pyrazin-2(1H)-one]	–	7.27
COc1ccc(S(=O)(=O)C(C)C)cc1Nc1ccc2c(n1)N(C1CCN(CC(F)F)CC1)[C@H](C)C(=O)N2C [Example 29, (3R)-4-[1-(2,2-Difluoroethyl)piperidin-4-yl]-6-{[5-(isopropylsulphonyl)-2-methoxyphenyl]amino}-1,3-dimethyl-3,4-dihydropyrido[2,3-b]pyrazin-2(1H)-one]	–	7.62
CC(C)S(=O)(=O)c1cccc(Nc2ccc3c(n2)N(C2CCN(C)CC2)[C@H](C)C(=O)N3C)c1 [Example 19, (3R)-6-{[3-(Isopropylsulphonyl)phenyl]amino}-1,3-dimethyl-4-(1-methylpiperidin-4-yl)-3,4-dihydropyrido[2,3-b]pyrazin-2(1H)-one]	–	7.82
